Experimental data: patent US20110223633A1, “METHODS AND REAGENTS FOR ENRICHMENT AND CHARACTERIZATION OF PHOSPHORYLATED BIOMOLECULES” (priority 2008, published 2011)
Values joined by “and” are separate entries in the source; they are usually repeats but may differ in a detail not shown here. Equal values may be shown once.

System: lipid droplet (LD) proteins from mouse white adipose tissue (WAT)
Assay: Stoichiometry of LD protein phosphorylation by isotope tagging and enzymatic (BIAP) dephosphorylation after CL316,243 injection
Format: in vivo
Procedure: Purification of lipid droplets (LD) from mouse white adipose tissue (WAT). All animals were maintained in the Canadian Council on Animal Care (CCAC)-accredited animal facilities of the CHU Ste-Justine Research Center. Two month-old (˜25-29 g BW) male C57BU6J mice, were purchased from Charles River Canada (St. Constant, PQ, Canada), and housed for an additional month at 25° C. in an animal facility with 12:12 h light-dark cycles. During this time, animals were fed ad libitum with 5K chow (˜18% protein, ˜6% fat, ˜5% fiber). […] The homogenate was filtered through a nylon mesh and centrifuged at 17 g for 2 min. Pellet and infranatant were removed and the floating lipid droplets resuspended in 2 ml of the homogenization buffer and centrifuged as above. After the second wash with 50 mM TRIS, pH 7.4, containing 1 M NaCl (Fisher), the LD were snap-frozen and kept at −80° C. until further use.
Extraction of LD proteins and preparation of peptide digests. Purified LD preparations (average wet weight 250 mg) were resuspended in 1 ml of ice-cold acetone, sonicated for 25 sec at 80 W, incubated for 16 h at −20° C. and centrifuged for 10 min at 13,000 g. The supernatants were discharged and pellets were re-extracted twice with ice-cold acetone (1 h each time). After removal of residual acetone under a stream of nitrogen, the protein pellets were re-suspended in 300 μl of a 0.1% sodium 3-[(2-methyl-2-undecyl-1,3-dioxolan-4-yl)methoxyl]-1-propanesulfonate (RapiGest™ SF) in 50 mM NH4HCO3, pH 7.8, containing 5 mM DTT, then sonicated for 10-25 sec and incubated in a boiling bath for 5 min. After 5-min centrifugation at 13,000 g, supernatants were treated for 30 min with IAA in the dark (final concentration 15 mM), and digested overnight with trypsin (Promega, sequencing grade; trypsin to protein ratio 1:50). After digestion, samples were supplemented with TFA (final concentration 0.5%), incubated at 37° C. for 1 h and centrifuged at 13,000 g for 10-min to remove RapiGest™ SF.
Labeling and dephosphorylation of LD peptides. Peptide digests (˜200 μg of protein) were de-salted by the reverse phase chromatography on macro-C18 spin columns (Harvard apparatus) eluted with 70% acetonitrile in water, dried in a SpeedVac™ Concentrator (Savant) and labeled with heavy or light SIMPL (Stable Isotope-containing Multiplex Peptide Labels) isotope tags as described (Fedjaev et al., 2007, supra). After adjusting pH to 8.0 with 500 mM NH4HCO3, samples were supplemented with 3 units of bovine intestinal alkaline phosphatase (BIAP, Sigma, P-5521) and incubated for 3 h at 37° C. BIAP reaction was terminated by addition of concentrated TCA (Sigma) to a final concentration 10%, followed by 1 h incubation on ice and 30-min centrifugation at 13,000 g. Samples containing dephosphorylated peptides were then mixed 1:1 with untreated samples, extracted twice with ethylacetate (Sigma) to remove the excess of unreacted SIMPL labels and analyzed by 2D-LC-MS/MS as described below.
HPLC of peptides on weak anion exchange (WAX) column. Offline WAX HPLC was performed on an Agilent™ 1100 Series liquid chromatography system. Peptides were loaded on C18 (Jupiter™ 4 μm Proteo 90 Å 50×1 mm, Phenomenex) column in 10 mM ammonium acetate containing 10% ACN, and eluted with step gradient of 70% of ACN directly on the WAX (PolySulfoethyl A […] 5 μm 300 Å) column. The column was washed with 10 mM ammonium acetate buffer containing 10% ACN for 10 min and peptides were eluted with 0-100% gradient of 2 M ammonium formate, 10% ACN. […] fractions of 50 μl were collected. Collected fractions were immediately acidified with FA (final concentration 0.2%) and analyzed by LC-MS/MS.
μLC-MS/MS analysis of LD peptides. Peptides were analyzed using a LC-MS/MS instrument consisting of an Agilent™ 1100 Series nanoflow liquid chromatography system and LC/MSD-Trap-SL™ ion trap mass spectrometer (Agilent Technologies, Santa Clara, Calif., USA). […]

C[C@H](Cc1ccc2c(c1)OC(C(=O)[O-])(C(=O)[O-])O2)NC[C@H](O)c1cccc(Cl)c1.[Na+].[Na+] [CL316,243, disodium 5-[(2R)-2-[[(2R)-2-(3-Chlorophenyl)-2-hydroxyethyl]amino]propyl]-1,3-benzodioxole-2,2-dicarboxylate]
Mean isotope ratio Treated, peptide KLLVSSEDYGR (Alpha II spectrin, LD from WAT, 1 mg/kg i.p., 15 min): 3.47 | Ratio Treated, peptide SSEEIESAFR (Alpha-II spectrin, z 2, m/z 668.3, LD from WAT of treated mice): 0.64(2) | Ratio Treated, peptide DLTNVQNLQK (Alpha-II spectrin, z 2, m/z 674.3, LD from WAT of treated mice): 0.98(1) | Ratio Treated, peptide SQLLGSAHEVQR (Alpha-II spectrin, z 2, m/z 750.4, LD from WAT of treated mice): 1.05(4) | Ratio Treated, peptide DTEQVDNWMSK (Alpha-II spectrin, z 2, m/z 764.7, LD from WAT of treated mice): 1.03(1) | Ratio Treated, peptide TKQDEVNAAWQR (Alpha-II spectrin, z 2, m/z 813.4, LD from WAT of treated mice): 0.84(1) | Ratio Treated, peptide EANELQQWITEK (Alpha-II spectrin, z 2, m/z 832.4, LD from WAT of treated mice): 1.1(3) | Ratio Treated, peptide MQHNLEQQIQAR (Alpha-II spectrin, z 2, m/z 835.9, LD from WAT of treated mice): 0.94(3) | Ratio Treated, peptide HQAFEAELSANQSR (Alpha-II spectrin, z 2, m/z 881.9, LD from WAT of treated mice): 1.24(2) | Ratio Treated, peptide LIQEQHPEEELIK (Alpha-II spectrin, z 2, m/z 891.5, LD from WAT of treated mice): 1.09(4) | Ratio Treated, peptide HQAFEAELHANADR (Alpha-II spectrin, z 2, m/z 892.5, LD from WAT of treated mice): 0.84(3) | Ratio Treated, peptide HQLLEADISAHEDR (Alpha-II spectrin, z 2, m/z 908.1, LD from WAT of treated mice): 1.04(2) | Ratio Treated, peptide GNAMVEEGHFAAEDVK (Alpha-II spectrin, z 2, m/z 940, LD from WAT of treated mice): 1.1(2) | Ratio Treated, peptide AQLADSFHLQQFFR (Alpha-II spectrin, z 2, m/z 945, LD from WAT of treated mice): 1.04(1) | Ratio Treated, peptide LSDDNTIGQEEIQQR (Alpha-II spectrin, z 2, m/z 961.3, LD from WAT of treated mice): 1.25(1) | Ratio Treated, peptide DLAALGDKVNSLGETAQR (Alpha-II spectrin, z 2, m/z 1020, LD from WAT of treated mice): 1.29(1) | Ratio Treated, peptide SSLSSAQADFNQLAELDR (Alpha-II spectrin, z 2, m/z 1064, LD from WAT of treated mice): 0.99(3) | Ratio Treated, peptide SADESGQALLAASHYASDEVR (Alpha-II spectrin, z 2, m/z 1177, LD from WAT of treated mice): 1.14(3) | Ratio Treated, peptide NQALNTDNYGHDLASVQALQR (Alpha-II spectrin, z 2, m/z 1253, LD from WAT of treated mice): 0.91(3) | Ratio Treated, peptide HQAFEAELHANADR (Alpha-II spectrin, z 3, m/z 597.6, LD from WAT of treated mice): 0.81(1) | Ratio Treated, peptide SADESGQALLAASHYASDEVR (Alpha-II spectrin, z 3, m/z 785, LD from WAT of treated mice): 1.1(3) | Mean isotope ratio Treated, peptide THVDSLR (Apolipoprotein A-I, BIAP-treated/untreated, LD from WAT, 1 mg/kg i.p., 15 min): −1.12 | Ratio Treated, peptide (K)VQPYLDEFQK(K) (Apolipoprotein A-I, z 2, m/z 721.2, LD from WAT of treated mice): 0.97(2) | Ratio Treated, peptide (R)TQLAPHSEQMR(E) (Apolipoprotein A-I, z 2, m/z 736.9, LD from WAT of treated mice): 0.99(1) | Ratio Treated, peptide (K)SNPTLNEYHTR(A) (Apolipoprotein A-I, z 2, m/z 753.9, LD from WAT of treated mice): 1(4) | share of HSL peptide SVSEAALAQPEGLLGTDTLKK phosphorylated (LD of stimulated adipocytes): ~80% | Mean isotope ratio Treated, peptide SVSEAALAQPEGLLGTDTLK (Lipase, hormone sensitive, LD from WAT, 1 mg/kg i.p., 15 min): 5.1 | Ratio Treated, peptide (R)LILTPPAAPLN(—) (Lipase, hormone sensitive, z 2, m/z 647.8, LD from WAT of treated mice): 0.78(1) | Ratio Treated, peptide (R)AAFPEGFHPR(R) (Lipase, hormone sensitive, z 2, m/z 652.3, LD from WAT of treated mice): 1.14(2) | Ratio Treated, peptide (R)QATEFCVQR(I) (Lipase, hormone sensitive, z 2, m/z 657.2, LD from WAT of treated mice): 1.01(3) | Ratio Treated, peptide (K)HCDLLGSTGER(I) (Lipase, hormone sensitive, z 2, m/z 710.3, LD from WAT of treated mice): 1(4) | Ratio Treated, peptide (K)CVSAYSGTEAEDHFDSDQK(A) (Lipase, hormone sensitive, z 2, m/z 1164, LD from WAT of treated mice): 1.08(1) | Ratio Treated, peptide (K)CVSAYSGTEAEDHFDSDQK(A) (Lipase, hormone sensitive, z 3, m/z 774.6, LD from WAT of treated mice): 0.92(1) | Mean isotope ratio Treated, peptide FVEGLPINDFSR(E) (Malate dehydrogenase, cytoplasmic, LD from WAT, 1 mg/kg i.p., 15 min): 3.08 | Ratio Treated, peptide (K)GEFITTVQQR(G) (Malate dehydrogenase, cytoplasmic, z 2, m/z 677.3, LD from WAT of treated mice): 1.18(2) | Mean isotope ratio Treated, peptide GLSAPSCPNGLDDK (Perilipin, LD from WAT, 1 mg/kg i.p., 15 min): 1.4 | Mean isotope ratio Treated, peptide LSLMEPESEFRDIDNPSAEAER (Perilipin, LD from WAT, 1 mg/kg i.p., 15 min, 1 mg/kg): 1.6 and 1.63 | Ratio Treated, peptide GLDHLEEK (Perilipin, z 2, m/z 558.3, LD from WAT of treated mice): 1.05(4) | Ratio Treated, peptide EVTALPNPR (Perilipin, z 2, m/z 587.2, LD from WAT of treated mice): 1.1(4) | Ratio Treated, peptide ETAEYAANTR (Perilipin, z 2, m/z 650.7, LD from WAT of treated mice): 0.71(1) | Ratio Treated, peptide IPALQYPPEK (Perilipin, z 2, m/z 665.5, LD from WAT of treated mice): 1.01(4) | Ratio Treated, peptide EAHPLVASVCNAYEK (Perilipin, z 2, m/z 932, LD from WAT of treated mice): 1.06(4) | Ratio Treated, peptide VLQLPWSGTCECFQK (Perilipin, z 2, m/z 1020, LD from WAT of treated mice): 0.98(4) | Ratio Treated, peptide GVQGASNLAAWSMEPVVR (Perilipin, z 2, m/z 1024, LD from WAT of treated mice): 1(2) | Ratio Treated, peptide GVTDNVVDTVVHYVPLPR (Perilipin, z 2, m/z 1078, LD from WAT of treated mice): 0.93(3) | Ratio Treated, peptide GPTLLDGDLPEQENVLQR (Perilipin, z 2, m/z 1085, LD from WAT of treated mice): 1.05(4) | Ratio Treated, peptide VLQLPWSGTCECFQK (Perilipin, z 3, m/z 680.8, LD from WAT of treated mice): 1.17(2) | Ratio Treated, peptide GVQGASNLAAWSMEPVVR (Perilipin, z 3, m/z 683, LD from WAT of treated mice): 1(2) | Ratio Treated, peptide VVEFLLPPDKESAPSSGR (Perilipin, z 3, m/z 701.8, LD from WAT of treated mice): 1.11(4) | Ratio Treated, peptide GVTDNVVDTVVHYVPLPR (Perilipin, z 3, m/z 719.3, LD from WAT of treated mice): 1(3) | Ratio Treated, peptide GPTLLDGDLPEQENVLQR (Perilipin, z 3, m/z 723.9, LD from WAT of treated mice): 1.01(4) | Mean isotope ratio Treated, peptide SHDTTSNTLTQLLAK (Protein kinase C delta binding protein, LD from WAT, 1 mg/kg i.p., 15 min): 1.11 | Ratio Treated, peptide (R)LEANHGLLVAR(G) (Protein kinase C delta binding protein, z 2, m/z 684.4, LD from WAT of treated mice): 0.94(2) | Ratio Treated, peptide (K)EDPEKPVLQIESAA(—) (Protein kinase C delta binding protein, z 2, m/z 854.9, LD from WAT of treated mice): 0.74(1)
